Assay results from US9375004B2 (Bayer Intellectual Property GmbH, priority 2010, dated 2016).
Where two headings read alike, the source gives them in different places.

Key:
Alternaria solani = assay: Alternaria test (tomato)/preventive; format: in vivo; conditions: 500 ppm, preventive, evaluated 7 days after inoculation
Puccinia triticina = assay: Puccinia triticina-test (wheat)/preventive; format: in vivo; conditions: 500 ppm, preventive, evaluated 8 days after inoculation
Pyrenophora teres = assay: Pyrenophora teres-test (barley)/preventive; format: in vivo; conditions: 500 ppm, preventive, evaluated 8 days after inoculation
Uromyces appendiculatus = conditions: 100 ppm, beans, preventive, evaluated 10 days after inoculation
Botrytis cinerea = assay: Botrytis test (beans)/preventive; conditions: 100 ppm, preventive, lesion size 2 days after inoculation
Venturia inaequalis = assay: Venturia test (apples)/preventive; conditions: 100 ppm, preventive, evaluated 10 days after inoculation
[1] = logP by HPLC on reversed-phase column (EEC Directive 79/831 Annex V.A8); conditions: HPLC on reversed-phase column (C 18), EEC Directive 79/831 Annex V.A8
Sphaerotheca fuliginea = assay: Sphaerotheca test (cucumber)/preventive; format: in vivo; conditions: 500 ppm, preventive, evaluated 7 days after inoculation
[2] = test system: Fusarium nivale (var. majus); assay: Fusarium nivale (var. majus)-test (wheat)/preventive; conditions: preventive, evaluated 5 days after inoculation
Septoria tritici = assay: Septoria tritici-test (wheat)/preventive; format: in vivo; conditions: 500 ppm, preventive, evaluated 21 days after inoculation

Row | logP [1] | SMILES | Efficacy (Alternaria solani) [%] | Efficacy (Puccinia triticina) [%] | Efficacy (Pyrenophora teres) [%] | Efficacy (Uromyces appendiculatus) [%] | Efficacy (Botrytis cinerea) [%] | Efficacy (Venturia inaequalis) [%] | Efficacy (Sphaerotheca fuliginea) [%] | Efficacy ([2]; 500 ppm) [%] | Efficacy (Septoria tritici) [%] | Efficacy ([2]; 250 ppm) [%] | Efficacy (Uromyces appendiculatus; listed as 104 from this invention) [%]
1 | 3.55 | CCCC(C)c1ccccc1NC(=O)c1c(C(F)F)nn(C)c1F (stereo not drawn) [Example 8] | 95 | 100 | 100 | 100 | 98 | 100 |  |  |  |  | 
2 | 2.74 | COC(C)(C)CCc1ccccc1NC(=O)c1c(C(F)F)nn(C)c1F [Example 23] | 70 | 100 | 71 | 90 |  | 100 |  |  | 100 |  | 
3 | 4.08 | Cn1nc(C(F)F)c(C(=O)Nc2ccc(F)cc2OCC(C)(C)C)c1F [Example 28] | 70 | 100 | 71 | 94 |  | 100 |  |  | 90 |  | 
4 | 4.29 | CC1CCCC(c2ccccc2NC(=O)c2c(C(F)F)nn(C)c2Cl)C1 (stereo not drawn) [Example 53] | 100 |  |  | 100 | 94 | 100 | 100 |  |  |  | 
5 | 4.21 | Cn1nc(C(F)F)c(C(=O)Nc2cccc3c2C2CCC3C2=C(Cl)Cl)c1Cl (stereo not drawn) [Example 71] | 80 | 100 | 100 | 100 | 94 | 100 | 100 | 94 |  | 94 | 
6 | 3.99 | Cn1nc(C(F)F)c(C(=O)Nc2cccc3c2C2CCC3C2=C(Cl)Cl)c1F (stereo not drawn) [Example 72] | 70 | 94 | 100 | 100 | 100 | 100 | 100 | 100 |  | 100 | 
7 | 3.57 | Cn1nc(C(F)F)c(C(=O)Nc2ccccc2-c2ccc(Cl)cc2)c1F [Example 85] | 95 | 100 | 100 | 100 | 100 | 100 | 98 | 100 |  |  | 
8 | 3.55 | Cn1nc(C(F)F)c(C(=O)Nc2ccccc2-c2cccc(Cl)c2)c1F [Example 86] | 95 | 100 | 100 | 100 | 100 | 100 |  | 71 | 86 |  | 
9 | 3.85 | Cn1nc(C(F)F)c(C(=O)Nc2ccccc2-c2ccc(Cl)cc2)c1Cl [Example 88] | 94 | 100 | 100 | 100 | 92 | 100 | 100 | 100 |  |  | 
10 | 3.40 | Cn1nc(C(F)F)c(C(=O)Nc2ccccc2-c2ccc(F)c(F)c2)c1Cl [Example 89] | 94 | 100 | 100 | 100 | 100 | 100 | 100 | 100 |  |  | 
11 | 3.20 | Cn1nc(C(F)F)c(C(=O)Nc2ccccc2-c2ccc(F)c(F)c2)c1F [Example 90] | 90 | 100 | 100 |  |  |  | 95 |  | 86 |  | 
12 | 3.45 | Cn1nc(C(F)F)c(C(=O)Nc2ccccc2-c2ccc(Cl)c(F)c2)c1F [Example 100] | 80 | 100 | 100 | 99 | 99 | 99 | 100 | 90 | 100 |  | 
13 | 3.92 | Cn1nc(C(F)F)c(C(=S)Nc2ccccc2-c2ccc(Cl)c(F)c2)c1Cl [Example 101] | 80 | 100 | 100 |  |  |  | 95 | 100 |  |  | 
14 | 3.30 | Cn1nc(C(F)F)c(C(=O)Nc2ccccc2-c2cc(F)c(F)c(F)c2)c1F [Example 104] |  | 100 | 100 |  | 100 | 100 |  |  |  |  | 100
15 | 3.65 | Cn1nc(C(F)F)c(C(=S)Nc2ccccc2-c2cc(F)c(F)c(F)c2)c1F [Example 106] | 90 | 100 | 100 | 100 |  | 100 | 98 |  | 80 |  | 
16 | 3.46 | Cn1nc(C(F)F)c(C(=O)Nc2ccccc2-c2cc(F)c(F)cc2F)c1Cl [Example 108] | 100 |  |  | 100 | 99 | 100 | 93 |  |  |  | 
17 | 3.50 | Cn1nc(C(F)F)c(C(=O)Nc2c(F)cccc2-c2ccc(Cl)c(Cl)c2)c1F [Example 115] | 95 | 88 |  | 100 | 94 | 100 |  | 86 |  |  | 
18 | 3.85 | Cn1nc(C(F)F)c(C(=O)Nc2ccccc2-c2ccc(Cl)c(Cl)c2)c1F [Example 125] | 95 | 100 | 100 | 100 | 100 | 100 | 98 |  |  |  | 
19 | 4.14 | Cn1nc(C(F)F)c(C(=O)Nc2ccccc2-c2ccc(Cl)c(Cl)c2)c1Cl [Example 126] | 89 | 100 | 100 | 96 |  | 75 | 100 | 100 |  |  | 
20 | 4.27 | Cn1nc(C(F)F)c(C(=O)Nc2ccccc2-c2ccc(-c3ccccc3)cc2)c1F [Example 137] | 95 | 100 | 93 | 99 |  | 100 | 100 |  |  |  | 
21 | 4.61 | Cn1nc(C(F)F)c(C(=O)Nc2ccccc2-c2ccc(-c3ccccc3)cc2)c1Cl [Example 138] |  | 100 | 86 |  |  |  | 100 |  |  |  | 
22 | 3.88 | Cn1nc(C(F)F)c(C(=O)Nc2ccccc2-c2ccc(Br)cc2)c1Cl [Example 140] |  | 100 | 100 | 100 | 98 | 100 |  | 86 |  |  | 
23 | 3.66 | Cn1nc(C(F)F)c(C(=O)Nc2ccc(F)cc2-c2ccc(C(F)(F)F)c(F)c2)c1F [Example 150] | 89 | 100 | 100 | 98 | 100 | 100 | 100 | 86 |  |  | 
24 | 4.06 | Cn1nc(C(F)F)c(C(=S)Nc2ccccc2-c2ccc(C(F)(F)F)c(F)c2)c1Cl [Example 151] | 95 | 100 | 100 |  |  |  | 98 | 100 | 93 |  | 
25 | 3.83 | Cn1nc(C(F)F)c(C(=O)Nc2ccccc2-c2ccc(Br)c(Cl)c2)c1F [Example 152] | 94 | 100 | 100 | 100 | 100 | 100 | 95 | 100 |  |  | 
26 | 4.16 | Cn1nc(C(F)F)c(C(=O)Nc2ccccc2-c2ccc(Br)cc2Cl)c1Cl [Example 154] | 95 |  |  | 100 | 78 | 100 | 100 |  |  |  | 
27 | 3.85 | Cn1nc(C(F)F)c(C(=O)Nc2ccccc2-c2ccc(Br)cc2Cl)c1F [Example 155] | 95 |  |  | 100 | 100 | 100 |  |  |  |  | 
28 | 4.81 | Cn1nc(C(F)F)c(C(=O)Nc2ccccc2OCc2ccc(Cl)cc2Cl)c1Cl [Example 163] |  | 71 | 92 |  |  |  |  |  | 71 |  | 
29 | 4.04 | Cn1nc(C(F)F)c(C(=O)Nc2cccc(-c3ccc(Cl)cc3)c2)c1Cl [Example 208] |  | 100 | 100 |  |  |  |  | 100 | 100 |  | 

Row | SMILES | logP [1] | Efficacy (Alternaria solani) [%] | Efficacy (Puccinia triticina) [%] | Efficacy (Pyrenophora teres) [%] | Efficacy (Uromyces appendiculatus) [%] | Efficacy (Botrytis cinerea) [%] | Efficacy (Venturia inaequalis) [%] | Efficacy (Sphaerotheca fuliginea) [%] | Efficacy ([2]; 500 ppm) [%] | Efficacy (Septoria tritici) [%] | Efficacy ([2]; 250 ppm) [%] | Efficacy (Uromyces appendiculatus; listed as 104 from this invention) [%]
30 | CCCC(C)c1ccccc1NC(=O)c1c(C(F)F)nn(C)c1Cl (stereo not drawn) [Example 9] | 3.77 | 95 | 100 | 100 | 100 |  | 100 | 100 | 100 |  |  | 
